Results from the supplement of paper PMC10307832.

How the values were obtained:
Assay in all cases: relative viability (nuclei count vs DMSO), 5 days (fraction); higher = more cells survive
NCI-H1666 = system: NCI-H1666
In short: (§1)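 Relative viability equals treated-well nuclei counts divided by vehicle-well nuclei counts. Counts came from 4× images of lung cancer cell lines grown in 1536-well plates for 5 days after pin-tool dosing on the day after seeding. Dosing used one drug alone or a fixed anchor-drug dose plus five library-drug doses (not always all listed) in √10 steps, and values are medians of duplicate plates.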

SK-MES-1 = system: SK-MES-1
In short: as §1

NCI-H1975 = system: NCI-H1975
In short: as §1

LK-2 = system: LK-2
In short: as §1

EKVX = system: EKVX
In short: as §1

A-427 = system: A-427
In short: as §1

COR-L 105 = system: COR-L 105
In short: as §1

EMC-BAC-2 = system: EMC-BAC-2
In short: as §1

PC-3 [JPC-3] = system: PC-3 [JPC-3]
In short: as §1

NCI-H23 = system: NCI-H23
In short: as §1

NCI-H520 = system: NCI-H520
In short: as §1

NCI-H1755 = system: NCI-H1755
In short: as §1

SW 900 = system: SW 900
In short: as §1

NCI-H1734 = system: NCI-H1734
In short: as §1

ChaGo-K-1 = system: ChaGo-K-1
In short: as §1

NCI-H2170 = system: NCI-H2170
In short: as §1

NCI-H441 = system: NCI-H441
In short: as §1

HCC-366 = system: HCC-366
In short: as §1

LOU-NH91 = system: LOU-NH91
In short: as §1

H3255 = system: H3255
In short: as §1

NCI-H596 = system: NCI-H596
In short: as §1

For `Cc1sc2c(c1C)C(c1ccc(Cl)cc1)=N[C@@H](CC(=O)OC(C)(C)C)c1nnc(C)n1-2` [JQ1] + Cc1cc(Nc2cc(N3CCN(C)CC3)nc(Sc3ccc(NC(=O)C4CC4)cc3)n2)n[nH]1 [Tozasertib] (partner 0.1 µM), the relative viability (NCI-H1666; first compound 0.04 µM) was 0.569, the relative viability (NCI-H1666; first compound 0.1265 µM) was 0.534 and the relative viability (NCI-H1666; first compound 0.4 µM) was 0.484. It also gave a relative viability (NCI-H1666; first compound 1.265 µM) of 0.36, a relative viability (NCI-H1666; first compound 4 µM) of 0.354 and a relative viability (SK-MES-1; first compound 0.04 µM) of 0.929. It also gave a relative viability (SK-MES-1; first compound 0.1265 µM) of 0.507, a relative viability (SK-MES-1; first compound 0.4 µM) of 0.419 and a relative viability (SK-MES-1; first compound 1.265 µM) of 0.208. The relative viability (SK-MES-1; first compound 4 µM) was 0.171, the relative viability (NCI-H1975; first compound 0.04 µM) was 0.75 and the relative viability (NCI-H1975; first compound 0.1265 µM) was 0.515. For the same compound, the relative viability (NCI-H1975; first compound 0.4 µM) was 0.487, the relative viability (NCI-H1975; first compound 1.265 µM) was 0.214 and the relative viability (NCI-H1975; first compound 4 µM) was 0.171. The relative viability (LK-2; first compound 0.04 µM) was 0.18, the relative viability (LK-2; first compound 0.1265 µM) was 0.192 and the relative viability (LK-2; first compound 0.4 µM) was 0.195. It also gave a relative viability (LK-2; first compound 1.265 µM) of 0.151, a relative viability (LK-2; first compound 4 µM) of 0.166 and a relative viability (EKVX; first compound 0.04 µM) of 0.317. The relative viability (EKVX; first compound 0.1265 µM) was 0.361, the relative viability (EKVX; first compound 0.4 µM) was 0.336 and the relative viability (EKVX; first compound 1.265 µM) was 0.247. The relative viability (EKVX; first compound 4 µM) was 0.185, the relative viability (A-427; first compound 0.04 µM) was 0.195 and the relative viability (A-427; first compound 0.1265 µM) was 0.188. For the same compound, the relative viability (A-427; first compound 0.4 µM) was 0.173, the relative viability (A-427; first compound 1.265 µM) was 0.131 and the relative viability (A-427; first compound 4 µM) was 0.125. It also gave a relative viability (COR-L 105; first compound 0.04 µM) of 0.359, a relative viability (COR-L 105; first compound 0.1265 µM) of 0.315 and a relative viability (COR-L 105; first compound 0.4 µM) of 0.297. For the same compound, the relative viability (COR-L 105; first compound 1.265 µM) was 0.235, the relative viability (COR-L 105; first compound 4 µM) was 0.112 and the relative viability (EMC-BAC-2; first compound 0.04 µM) was 0.248. For the same compound, the relative viability (EMC-BAC-2; first compound 0.1265 µM) was 0.235, the relative viability (EMC-BAC-2; first compound 0.4 µM) was 0.221 and the relative viability (EMC-BAC-2; first compound 1.265 µM) was 0.174. For the same compound, the relative viability (EMC-BAC-2; first compound 4 µM) was 0.174, the relative viability (PC-3 [JPC-3]; first compound 0.04 µM) was 0.924 and the relative viability (PC-3 [JPC-3]; first compound 0.1265 µM) was 0.935. The relative viability (PC-3 [JPC-3]; first compound 0.4 µM) was 0.588, the relative viability (PC-3 [JPC-3]; first compound 1.265 µM) was 0.502 and the relative viability (PC-3 [JPC-3]; first compound 4 µM) was 0.296. The relative viability (NCI-H23; first compound 0.04 µM) was 0.263, the relative viability (NCI-H23; first compound 0.1265 µM) was 0.253 and the relative viability (NCI-H23; first compound 0.4 µM) was 0.279. The relative viability (NCI-H23; first compound 1.265 µM) was 0.147, the relative viability (NCI-H23; first compound 4 µM) was 0.138 and the relative viability (NCI-H520; first compound 0.04 µM) was 0.508. It also gave a relative viability (NCI-H520; first compound 0.1265 µM) of 0.406, a relative viability (NCI-H520; first compound 0.4 µM) of 0.332 and a relative viability (NCI-H520; first compound 1.265 µM) of 0.296. The relative viability (NCI-H520; first compound 4 µM) was 0.25, the relative viability (NCI-H1755; first compound 0.04 µM) was 0.587 and the relative viability (NCI-H1755; first compound 0.1265 µM) was 0.584. It also gave a relative viability (NCI-H1755; first compound 0.4 µM) of 0.566, a relative viability (NCI-H1755; first compound 1.265 µM) of 0.444 and a relative viability (NCI-H1755; first compound 4 µM) of 0.411. For the same compound, the relative viability (SW 900; first compound 0.04 µM) was 0.647, the relative viability (SW 900; first compound 0.1265 µM) was 0.641 and the relative viability (SW 900; first compound 0.4 µM) was 0.421. For the same compound, the relative viability (SW 900; first compound 1.265 µM) was 0.297, the relative viability (SW 900; first compound 4 µM) was 0.227 and the relative viability (NCI-H1734; first compound 0.04 µM) was 0.259. It also gave a relative viability (NCI-H1734; first compound 0.1265 µM) of 0.209, a relative viability (NCI-H1734; first compound 0.4 µM) of 0.215 and a relative viability (NCI-H1734; first compound 1.265 µM) of 0.204. The relative viability (NCI-H1734; first compound 4 µM) was 0.212, the relative viability (ChaGo-K-1; first compound 0.04 µM) was 0.205 and the relative viability (ChaGo-K-1; first compound 0.1265 µM) was 0.224. It also gave a relative viability (ChaGo-K-1; first compound 0.4 µM) of 0.168, a relative viability (ChaGo-K-1; first compound 1.265 µM) of 0.158 and a relative viability (ChaGo-K-1; first compound 4 µM) of 0.164. For the same compound, the relative viability (NCI-H2170; first compound 0.04 µM) was 0.711, the relative viability (NCI-H2170; first compound 0.1265 µM) was 0.64 and the relative viability (NCI-H2170; first compound 0.4 µM) was 0.467. For the same compound, the relative viability (NCI-H2170; first compound 1.265 µM) was 0.352, the relative viability (NCI-H2170; first compound 4 µM) was 0.194 and the relative viability (NCI-H441; first compound 0.04 µM) was 0.629. The relative viability (NCI-H441; first compound 0.1265 µM) was 0.66, the relative viability (NCI-H441; first compound 0.4 µM) was 0.631 and the relative viability (NCI-H441; first compound 1.265 µM) was 0.417. The relative viability (NCI-H441; first compound 4 µM) was 0.219, the relative viability (HCC-366; first compound 0.04 µM) was 0.112 and the relative viability (HCC-366; first compound 0.4 µM) was 0.0922. It also gave a relative viability (HCC-366; first compound 1.265 µM) of 0.0515, a relative viability (HCC-366; first compound 4 µM) of 0.0708 and a relative viability (LOU-NH91; first compound 0.04 µM) of 0.653. The relative viability (LOU-NH91; first compound 0.1265 µM) was 0.453, the relative viability (LOU-NH91; first compound 0.4 µM) was 0.255 and the relative viability (LOU-NH91; first compound 1.265 µM) was 0.359. It also gave a relative viability (LOU-NH91; first compound 4 µM) of 0.299, a relative viability (H3255; first compound 0.04 µM) of 0.65 and a relative viability (H3255; first compound 0.1265 µM) of 0.625. The relative viability (H3255; first compound 0.4 µM) was 0.64, the relative viability (H3255; first compound 1.265 µM) was 0.426 and the relative viability (H3255; first compound 4 µM) was 0.204. For the same compound, the relative viability (NCI-H596; first compound 0.04 µM) was 0.822, the relative viability (NCI-H596; first compound 0.1265 µM) was 0.643 and the relative viability (NCI-H596; first compound 0.4 µM) was 0.72. The relative viability (NCI-H596; first compound 1.265 µM) was 0.237 and the relative viability (NCI-H596; first compound 4 µM) was 0.225.
